Laboratory results published in ChEMBL document CHEMBL1811856 (J Med Chem, 2011).

Experiments:
[1] = Displacement of [3H]spiperone from dopamine D2 like receptor in porcine striatal membranes after 30 mins by scintillation counting; assay type: cell membranes, Sus scrofa, Striatum, Membrane
[2] = species on record: Sus scrofa; experiment: Selectivity ratio Ki for dopamine D2 like receptor in porcine striatal membranes to Ki for dopamine D1 like receptor in porcine striatal membranes; assay type: cell membranes
[3] = Displacement of [3H]SCH-23390 from dopamine D1 like receptor in porcine striatal membranes after 30 mins by scintillation counting; assay type: cell membranes, Sus scrofa, Striatum, Membrane

C[C@H]1Cc2cc(O)c(O)cc2[C@H]2c3ccccc3CN[C@@H]21 (racemic)
Ki [1]: 8.67 µM
Ratio Ki [2]: 1.3
Ki [3]: 6.54 µM

C[C@@H]1C[C@H]2NCc3ccccc3[C@@H]2c2cc(O)c(O)cc21 (racemic)
Ki [1]: 5.53 µM
Ratio Ki [2]: 20
Ki [3]: 0.27 µM

Oc1cc2c(cc1O)[C@H]1c3ccccc3CN[C@@H]1CC2 (racemic) [DIHYDREXIDINE]
Ki [1]: 0.24 µM

C[C@@H]1Cc2cc(O)c(O)cc2[C@H]2c3ccccc3CN[C@@H]21
Ki [1]: 7.38 µM
Ratio Ki [2]: < 0.74
Ki [3]: > 10 µM

C[C@H]1C[C@H]2NCc3ccccc3[C@@H]2c2cc(O)c(O)cc21 (racemic)
Ki [1]: 3.63 µM
Ratio Ki [2]: 3.9
Ki [3]: 0.92 µM
